Results from patent US9796704B2, “Substituted quinazolines as receptor-type kinase inhibitors” (Symphony Evolution, Inc., priority 2002, dated 2017).

What was measured:
EphB4 = EphB4 (Homo sapiens (Human), UniProt P54760); experiment: EphB4 kinase inhibition, 33P phosphoryl transfer assay (radiometric); type: biochemical
EGFR = EGFR (Homo sapiens (Human), UniProt P00533); experiment: EGFR kinase inhibition, luciferase-coupled chemiluminescent assay (LCCA); conditions: read-out: EGFR IC50
Procedure: (§1) Kinase activity and compound inhibition are investigated using one or more of the three assay formats described below. The ATP concentrations are selected near its Michaelis-Menten constant (KM) for each individual kinase. Dose-response experiments are performed at ten different inhibitor concentrations in a 384-well plate format. […] Typically H is close to unity.
(§2) In the LCCA assays, kinase activity is measured by the ATP consumption that is accurately measured by luciferase-coupled chemiluminescence. Greiner 384-well white clear bottom medium binding plates are used for LCCA. Briefly the kinase reaction is initiated by mixing compounds, ATP and kinases in a 20 μL volume. At the end of the kinase reaction, a 20 μL luciferase-luciferin mix is added and the chemiluminescent signal is read on a Wallac Victor^2 reader.

EphA2 = EphA2 (Homo sapiens (Human), UniProt P29317); experiment: EphA2 kinase inhibition, luciferase-coupled chemiluminescent assay (LCCA); conditions: read-out: EphA2 IC50
Chain of EphA2 (P29317 598-890): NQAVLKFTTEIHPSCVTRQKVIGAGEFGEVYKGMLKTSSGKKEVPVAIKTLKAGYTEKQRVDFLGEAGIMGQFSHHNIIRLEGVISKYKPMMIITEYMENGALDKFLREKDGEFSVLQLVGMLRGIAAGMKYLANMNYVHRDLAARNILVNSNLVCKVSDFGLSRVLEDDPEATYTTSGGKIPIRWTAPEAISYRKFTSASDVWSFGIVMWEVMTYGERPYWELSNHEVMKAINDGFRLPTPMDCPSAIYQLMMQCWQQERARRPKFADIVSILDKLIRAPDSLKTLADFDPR
Procedure: as §1, §2

Chain of EphB4 (P54760 605-890): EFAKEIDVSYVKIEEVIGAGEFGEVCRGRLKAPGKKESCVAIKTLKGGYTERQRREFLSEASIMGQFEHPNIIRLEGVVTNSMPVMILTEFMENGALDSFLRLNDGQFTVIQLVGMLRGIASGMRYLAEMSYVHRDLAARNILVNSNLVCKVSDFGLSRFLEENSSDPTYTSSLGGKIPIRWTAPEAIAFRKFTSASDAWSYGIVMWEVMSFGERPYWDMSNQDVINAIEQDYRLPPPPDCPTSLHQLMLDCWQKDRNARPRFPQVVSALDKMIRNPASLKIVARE
Chain of EGFR (P00533 672-1210): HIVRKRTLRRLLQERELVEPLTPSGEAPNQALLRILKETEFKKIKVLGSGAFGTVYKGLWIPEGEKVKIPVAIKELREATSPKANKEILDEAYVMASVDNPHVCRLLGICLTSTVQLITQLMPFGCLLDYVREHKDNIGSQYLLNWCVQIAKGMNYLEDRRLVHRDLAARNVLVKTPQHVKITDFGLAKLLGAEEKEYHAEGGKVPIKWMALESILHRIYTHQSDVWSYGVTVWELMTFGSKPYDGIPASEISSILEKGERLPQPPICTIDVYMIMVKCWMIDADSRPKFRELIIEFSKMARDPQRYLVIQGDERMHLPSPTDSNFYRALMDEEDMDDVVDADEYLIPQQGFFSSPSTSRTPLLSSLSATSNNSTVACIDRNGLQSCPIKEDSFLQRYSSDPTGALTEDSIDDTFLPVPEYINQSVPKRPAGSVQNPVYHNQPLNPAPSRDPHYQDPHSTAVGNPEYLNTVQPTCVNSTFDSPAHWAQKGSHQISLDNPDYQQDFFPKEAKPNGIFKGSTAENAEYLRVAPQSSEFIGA

Compound: COc1cc2c(Nc3ccc(Cl)c(Cl)c3)ncnc2cc1OCc1nc(-c2cccnc2)cs1 [Example 201, N-(3,4-dichlorophenyl)-6-(methyloxy)-7-{[(4-pyridin-3-yl-1,3-thiazol-2-yl)methyl]oxy}quinazolin-4-amine]
- IC50 (EphB4): 50 to 1000 nM
- IC50 (EGFR): < 50 nM
- IC50 (EphA2): 50 to 1000 nM

Compound: COc1cc2c(Nc3ccc(Cl)c(Cl)c3)ncnc2cc1OCc1nc(N2CCOCC2)no1 [Example 205, N-(3,4-dichlorophenyl)-6-(methyloxy)-7-{[(3-morpholin-4-yl-1,2,4-oxadiazol-5-yl)methyl]oxy}quinazolin-4-amine]
- IC50 (EphB4): < 50 nM
- IC50 (EGFR): < 50 nM
- IC50 (EphA2): 50 to 1000 nM

Compound: COc1cc2c(Nc3ccc(Cl)c(Cl)c3)ncnc2cc1OCc1nc(N(C)C)no1 [Example 206, N-(3,4-dichlorophenyl)-7-({[3-(dimethylamino)-1,2,4-oxadiazol-5-yl]methyl}oxy)-6-(methyloxy)quinazolin-4-amine]
- IC50 (EphB4): 50 to 1000 nM
- IC50 (EGFR): < 50 nM
- IC50 (EphA2): 50 to 1000 nM

Compound: COc1cc2c(Nc3ccc(Cl)c(Cl)c3)ncnc2cc1OCc1nc2c(s1)CNCC2 [Example 208, N-(3,4-dichlorophenyl)-6-(methyloxy)-7-[(4,5,6,7-tetrahydro[1,3]thiazolo[5,4-c]pyridin-2-ylmethyl)oxy]quinazolin-4-amine]
- IC50 (EphB4): 50 to 1000 nM
- IC50 (EGFR): < 50 nM
- IC50 (EphA2): 50 to 1000 nM

Compound: COc1cc2c(Nc3ccc(Cl)c(Cl)c3)ncnc2cc1OCc1nc(CN2CCOCC2)cs1 [Example 209, N-(3,4-dichlorophenyl)-6-(methyloxy)-7-({[4-(morpholin-4-ylmethyl)-1,3-thiazol-2-yl]methyl}oxy)quinazolin-4-amine]
- IC50 (EphB4): < 50 nM
- IC50 (EGFR): < 50 nM
- IC50 (EphA2): 50 to 1000 nM

Compound: CCN1CCOC(COc2cc3ncnc(Nc4ccc(Cl)c(Cl)c4)c3cc2OC)C1 (stereo not drawn) [Example 212, N-(3,4-dichlorophenyl)-7-{[(4-ethylmorpholin-2-yl)methyl]oxy}-6-(methyloxy)quinazolin-4-amine]
- IC50 (EphB4): 50 to 1000 nM
- IC50 (EGFR): < 50 nM
- IC50 (EphA2): 50 to 1000 nM

Compound: COc1cc2c(Nc3ccc(Cl)c(Cl)c3)ncnc2cc1OCc1csc(C2CCNCC2)n1 [Example 213, N-(3,4-dichlorophenyl)-6-(methyloxy)-7-{[(2-piperidin-4-yl-1,3-thiazol-4-yl)methyl]oxy}quinazolin-4-amine]
- IC50 (EphB4): < 50 nM
- IC50 (EGFR): < 50 nM
- IC50 (EphA2): 50 to 1000 nM

Compound: COc1cc2c(Nc3ccc(Cl)c(Cl)c3)ncnc2cc1OCc1csc(C2CCN(C)CC2)n1 [Example 214, N-(3,4-dichlorophenyl)-6-(methyloxy)-7-({[2-(1-methylpiperidin-4-yl)-1,3-thiazol-4-yl]methyl}oxy)quinazolin-4-amine]
- IC50 (EphB4): < 50 nM
- IC50 (EGFR): < 50 nM
- IC50 (EphA2): 50 to 1000 nM

Compound: CCN1CCCCC1c1nc(COc2cc3ncnc(Nc4ccc(Cl)c(Cl)c4)c3cc2OC)no1 (stereo not drawn) [Example 219, N-(3,4-dichlorophenyl)-7-({[5-(1-ethylpiperidin-2-yl)-1,2,4-oxadiazol-3-yl]methyl}oxy)-6-(methyloxy)quinazolin-4-amine]
- IC50 (EphB4): 50 to 1000 nM
- IC50 (EGFR): < 50 nM
- IC50 (EphA2): 50 to 1000 nM

Compound: CCN1CCN(c2noc(COc3cc4ncnc(Nc5ccc(Cl)c(Cl)c5)c4cc3OC)n2)CC1 [Example 220, N-(3,4-dichlorophenyl)-7-({[3-(4-ethylpiperazin-1-yl)-1,2,4-oxadiazol-5-yl]methyl}oxy)-6-(methyloxy)quinazolin-4-amine]
- IC50 (EphB4): 50 to 1000 nM
- IC50 (EGFR): < 50 nM
- IC50 (EphA2): 50 to 1000 nM

Compound: COc1cc2c(Nc3ccc(Cl)c(Cl)c3)ncnc2cc1OCc1csc(-c2ccc(Cl)cc2)n1 [Example 223, 7-({[2-(4-chlorophenyl)-1,3-thiazol-4-yl]methyl}oxy)-N-(3,4-dichlorophenyl)-6-(methyloxy)quinazolin-4-amine]
- IC50 (EphB4): 50 to 1000 nM
- IC50 (EGFR): < 50 nM
- IC50 (EphA2): 50 to 1000 nM

Compound: COc1cc2c(Nc3ccc(Cl)c(Cl)c3)ncnc2cc1OCc1noc(-c2c(C)noc2C)n1 [Example 224, N-(3,4-dichlorophenyl)-7-({[5-(3,5-dimethylisoxazol-4-yl)-1,2,4-oxadiazol-3-yl]methyl}oxy)-6-(methyloxy)quinazolin-4-amine]
- IC50 (EphB4): 50 to 1000 nM
- IC50 (EGFR): < 50 nM
- IC50 (EphA2): 50 to 1000 nM

Compound: COc1cc2c(Nc3ccc(Cl)c(Cl)c3)ncnc2cc1OCc1csc2ccc(Cl)cc12 [Example 225, 7-{[(5-chloro-1-benzothien-3-yl)methyl]oxy}-N-(3,4-dichlorophenyl)-6-(methyloxy)quinazolin-4-amine]
- IC50 (EphB4): 1000 to 20000 nM
- IC50 (EGFR): < 50 nM
- IC50 (EphA2): 1000 to 20000 nM

Compound: COc1cc2c(Nc3ccc(Cl)c(Cl)c3)ncnc2cc1OCc1noc(-c2ccccc2OC)n1 [Example 227, N-(3,4-dichlorophenyl)-6-(methyloxy)-7-[({5-[2-(methyloxy)phenyl]-1,2,4-oxadiazol-3-yl}methyl)oxy]quinazolin-4-amine]
- IC50 (EphB4): < 50 nM
- IC50 (EGFR): < 50 nM
- IC50 (EphA2): 50 to 1000 nM

Compound: COc1cc2c(Nc3ccc(Cl)c(Cl)c3)ncnc2cc1OCc1nnc(-c2ccc(C)cc2)o1 [Example 228, N-(3,4-dichlorophenyl)-6-(methyloxy)-7-({[5-(4-methylphenyl)-1,3,4-oxadiazol-2-yl]methyl}oxy)quinazolin-4-amine]
- IC50 (EphB4): < 50 nM
- IC50 (EGFR): < 50 nM
- IC50 (EphA2): 50 to 1000 nM

Compound: COc1cc2c(Nc3ccc(Cl)c(Cl)c3)ncnc2cc1OCc1nccn1Cc1ccccc1 [Example 229, N-(3,4-dichlorophenyl)-6-(methyloxy)-7-({[1-(phenylmethyl)-lH-imidazol-2-yl]methyl}oxy)quinazolin-4-amine]
- IC50 (EphB4): 50 to 1000 nM
- IC50 (EGFR): < 50 nM
- IC50 (EphA2): 1000 to 20000 nM

Compound: COc1cc2c(Nc3ccc(Cl)c(Cl)c3)ncnc2cc1OCc1csc(N(C)C)n1 [Example 240, N-(3,4-dichlorophenyl)-7-({[2-(dimethylamino)-1,3-thiazol-4-yl]methyl}oxy)-6-(methyloxy)quinazolin-4-amine]
- IC50 (EphB4): < 50 nM
- IC50 (EGFR): < 50 nM
- IC50 (EphA2): 50 to 1000 nM

Compound: CCN1CCCOC(COc2cc3ncnc(Nc4ccc(Cl)c(Cl)c4)c3cc2OC)C1 (stereo not drawn) [Example 241, N-(3,4-dichlorophenyl)-7-{[(4-ethyl-1,4-oxazepan-2-yl)methyl]oxy}-6-(methyloxy)quinazolin-4-amine]
- IC50 (EphB4): < 50 nM
- IC50 (EGFR): < 50 nM
- IC50 (EphA2): < 50 nM

Compound: COc1cc2c(Nc3ccc(Cl)c(Cl)c3)ncnc2cc1OCc1csc(CO)n1 [Example 246, [4-({[4-[(3,4-dichlorophenyl)amino]-6-(methyloxy)quinazolin-7-yl]oxy}methyl)-1,3-thiazol-2-yl]methanol]
- IC50 (EphB4): < 50 nM
- IC50 (EGFR): < 50 nM
- IC50 (EphA2): < 50 nM

Compound: COc1cc2c(Nc3ccc(Cl)c(Cl)c3)ncnc2cc1OCc1csc([C@@H]2CSCN2)n1 [Example 248, N-(3,4-dichlorophenyl)-6-(methyloxy)-7-[({2-[(4S)-1,3-thiazolidin-4-yl]-1,3-thiazol-4-yl}methyl)oxy]quinazolin-4-amine]
- IC50 (EphB4): 50 to 1000 nM
- IC50 (EGFR): < 50 nM
- IC50 (EphA2): 50 to 1000 nM

Compound: COc1cc2c(Nc3ccc(Cl)c(Cl)c3)ncnc2cc1OCc1csc(C2CCCCN2)n1 (stereo not drawn) [Example 249, N-(3,4-dichlorophenyl)-6-(methyloxy)-7-{[(2-piperidin-2-yl-1,3-thiazol-4-yl)methyl]oxy}quinazolin-4-amine]
- IC50 (EphB4): 50 to 1000 nM
- IC50 (EGFR): < 50 nM
- IC50 (EphA2): 50 to 1000 nM
